Laboratory results taken from article PMC11468049 (Fluids and Barriers of the CNS, 2024).

Columns and labels:
[1] = system: iPSC-derived pericyte-like cells; assay: Aβ42-Hylite488 internalization by pericyte-like cells (confocal microscopy); assay type: cell-based, human; conditions: confocal microscopy (Fig. 5D)
Description: Data are reported as mean ± standard deviation. […] The last column contains the merged images. Scale bars: 10 μm. […] (n = 4 wells of biological replicates per condition) **: p < 0.01 in Student’s t-test. Data are reported as mean ± standard deviation. […] Confocal microscopy images were taken at 5 μm z-slice intervals. All z-slices with Hoechst 33342 nuclear staining were aggregated for maximum intensity projection analysis. Scale bars: 10 μm.

LRP1 [2] = molecular target: T1, LRP1 (Homo sapiens, UniProt Q07954); assay: Aβ42-Hylite488 internalization by pericyte-like cells with LRP1 inhibition by RAP; assay type: cell-based; conditions: APOE3 pericyte-like cells; with or without RAP; confocal MFI; n = 4 (Fig. 5D, E)
T1 construct: endogenous in cells; host or cells: APOE3 human iPSC-derived BMEC-like cells
Description: Patients with AD commonly have amyloid deposits associated with their brain vasculature, contributing to a pathological condition known as cerebral amyloid angiopathy (CAA). Recently, a role of pericytes in CAA has been reported. We quantified deposition of Aβ42, the Aβ isoform more prone to aggregation, for pericyte-like cells expressing different APOE isoforms. […] The pericyte-like cells were then singularized, washed and fixed, but not permeabilized, for cell surface immunolabeling with an anti-Aβ antibody. […] In the same way, we then examined the impact of APOE genotype on pericyte-like cell internalization of Aβ42.
Pericyte-like cells were then singularized, washed and labeled with anti-Aβ-FITC antibody for flow cytometry quantification of cell surface-associated Aβ42. […] FSC: forward scatter. Histogram is normalized to mode. […] Data are reported as mean ± standard deviation. (D) Representative confocal microscopy images showing accumulation of intracellular Aβ42-Hylite488 with or without LRP1 inhibition by RAP in APOE3 pericyte-like cells. […] (E) Quantification of mean fluorescence intensity (MFI) of Aβ42-Hylite488 accumulated inside APOE3 pericyte-like cells by confocal microscopy. […] (G) Quantification of mean fluorescence intensity (MFI) in maximum intensity projection confocal microscopy images of Aβ42-Hylite488 accumulated inside iPSC-derived pericytes by confocal microscopy. […]

LRP1 [3] = molecular target: T1, LRP1; assay: in vitro Aβ transcytosis assay with LRP1 inhibition by RAP; assay type: cell-based; conditions: APOE3 iPSC-derived BMEC-like cells on Transwell; with and without RAP; 3 h; apical Aβ40 by ELISA; n = 8 wells (Fig. 2D)
Protocol: (§1) Transwells (Corning, 3460) pre-coated with 200 uL 0.5 mg/mL collagen IV (Sigma, C5533) overnight at 37 °C. iPSC-derived BMEC-like cells were seeded at 1 million/cm^2 on Transwells (Corning, 3460) in hECSR media. […] This buffer helps to maintain Aβ in monomeric and denatured state. Stocks were then diluted to 500 nM in hECSR medium immediately before experiments. For experiments conditions when recombinant APOE is added, recombinant APOE2 (Peprotech, 350 − 12), APOE3 (Peprotech, 350-02) or APOE4 (Peprotech, 350-04) were added at concentration of 500 nM. In transcytosis assay, 1.5 mL of hECSR medium with Aβ and/or recombinant APOE was added to the basolateral chamber. 0.5 mL of hECSR media that is Aβ-free and APOE-free was added to the apical chamber. The Transwells were then incubated at 37 °C on a 300 rpm orbital shaker for 3 h. Media samples from the apical chamber were taken and analyzed.
(Fig. 2A). […] (Fig. 2E).

[4] = system: iPSC-derived BMEC-like cells; assay: in vitro Aβ transcytosis assay (basolateral-to-apical, Transwell); assay type: cell-based, human; conditions: 3 h, 37 °C; for effect of recombinant APOE isoform on Aβ42 trafficking: 500 nM rhAPOE plus 500 nM Aβ42 basolateral
Protocol: as §1

[5] = APOE KO BMEC-like cells on Transwell, apical ELISA, vs no APOE control, n = 12 (Fig. 3D)

T1 sequence (Q07954 20-4544): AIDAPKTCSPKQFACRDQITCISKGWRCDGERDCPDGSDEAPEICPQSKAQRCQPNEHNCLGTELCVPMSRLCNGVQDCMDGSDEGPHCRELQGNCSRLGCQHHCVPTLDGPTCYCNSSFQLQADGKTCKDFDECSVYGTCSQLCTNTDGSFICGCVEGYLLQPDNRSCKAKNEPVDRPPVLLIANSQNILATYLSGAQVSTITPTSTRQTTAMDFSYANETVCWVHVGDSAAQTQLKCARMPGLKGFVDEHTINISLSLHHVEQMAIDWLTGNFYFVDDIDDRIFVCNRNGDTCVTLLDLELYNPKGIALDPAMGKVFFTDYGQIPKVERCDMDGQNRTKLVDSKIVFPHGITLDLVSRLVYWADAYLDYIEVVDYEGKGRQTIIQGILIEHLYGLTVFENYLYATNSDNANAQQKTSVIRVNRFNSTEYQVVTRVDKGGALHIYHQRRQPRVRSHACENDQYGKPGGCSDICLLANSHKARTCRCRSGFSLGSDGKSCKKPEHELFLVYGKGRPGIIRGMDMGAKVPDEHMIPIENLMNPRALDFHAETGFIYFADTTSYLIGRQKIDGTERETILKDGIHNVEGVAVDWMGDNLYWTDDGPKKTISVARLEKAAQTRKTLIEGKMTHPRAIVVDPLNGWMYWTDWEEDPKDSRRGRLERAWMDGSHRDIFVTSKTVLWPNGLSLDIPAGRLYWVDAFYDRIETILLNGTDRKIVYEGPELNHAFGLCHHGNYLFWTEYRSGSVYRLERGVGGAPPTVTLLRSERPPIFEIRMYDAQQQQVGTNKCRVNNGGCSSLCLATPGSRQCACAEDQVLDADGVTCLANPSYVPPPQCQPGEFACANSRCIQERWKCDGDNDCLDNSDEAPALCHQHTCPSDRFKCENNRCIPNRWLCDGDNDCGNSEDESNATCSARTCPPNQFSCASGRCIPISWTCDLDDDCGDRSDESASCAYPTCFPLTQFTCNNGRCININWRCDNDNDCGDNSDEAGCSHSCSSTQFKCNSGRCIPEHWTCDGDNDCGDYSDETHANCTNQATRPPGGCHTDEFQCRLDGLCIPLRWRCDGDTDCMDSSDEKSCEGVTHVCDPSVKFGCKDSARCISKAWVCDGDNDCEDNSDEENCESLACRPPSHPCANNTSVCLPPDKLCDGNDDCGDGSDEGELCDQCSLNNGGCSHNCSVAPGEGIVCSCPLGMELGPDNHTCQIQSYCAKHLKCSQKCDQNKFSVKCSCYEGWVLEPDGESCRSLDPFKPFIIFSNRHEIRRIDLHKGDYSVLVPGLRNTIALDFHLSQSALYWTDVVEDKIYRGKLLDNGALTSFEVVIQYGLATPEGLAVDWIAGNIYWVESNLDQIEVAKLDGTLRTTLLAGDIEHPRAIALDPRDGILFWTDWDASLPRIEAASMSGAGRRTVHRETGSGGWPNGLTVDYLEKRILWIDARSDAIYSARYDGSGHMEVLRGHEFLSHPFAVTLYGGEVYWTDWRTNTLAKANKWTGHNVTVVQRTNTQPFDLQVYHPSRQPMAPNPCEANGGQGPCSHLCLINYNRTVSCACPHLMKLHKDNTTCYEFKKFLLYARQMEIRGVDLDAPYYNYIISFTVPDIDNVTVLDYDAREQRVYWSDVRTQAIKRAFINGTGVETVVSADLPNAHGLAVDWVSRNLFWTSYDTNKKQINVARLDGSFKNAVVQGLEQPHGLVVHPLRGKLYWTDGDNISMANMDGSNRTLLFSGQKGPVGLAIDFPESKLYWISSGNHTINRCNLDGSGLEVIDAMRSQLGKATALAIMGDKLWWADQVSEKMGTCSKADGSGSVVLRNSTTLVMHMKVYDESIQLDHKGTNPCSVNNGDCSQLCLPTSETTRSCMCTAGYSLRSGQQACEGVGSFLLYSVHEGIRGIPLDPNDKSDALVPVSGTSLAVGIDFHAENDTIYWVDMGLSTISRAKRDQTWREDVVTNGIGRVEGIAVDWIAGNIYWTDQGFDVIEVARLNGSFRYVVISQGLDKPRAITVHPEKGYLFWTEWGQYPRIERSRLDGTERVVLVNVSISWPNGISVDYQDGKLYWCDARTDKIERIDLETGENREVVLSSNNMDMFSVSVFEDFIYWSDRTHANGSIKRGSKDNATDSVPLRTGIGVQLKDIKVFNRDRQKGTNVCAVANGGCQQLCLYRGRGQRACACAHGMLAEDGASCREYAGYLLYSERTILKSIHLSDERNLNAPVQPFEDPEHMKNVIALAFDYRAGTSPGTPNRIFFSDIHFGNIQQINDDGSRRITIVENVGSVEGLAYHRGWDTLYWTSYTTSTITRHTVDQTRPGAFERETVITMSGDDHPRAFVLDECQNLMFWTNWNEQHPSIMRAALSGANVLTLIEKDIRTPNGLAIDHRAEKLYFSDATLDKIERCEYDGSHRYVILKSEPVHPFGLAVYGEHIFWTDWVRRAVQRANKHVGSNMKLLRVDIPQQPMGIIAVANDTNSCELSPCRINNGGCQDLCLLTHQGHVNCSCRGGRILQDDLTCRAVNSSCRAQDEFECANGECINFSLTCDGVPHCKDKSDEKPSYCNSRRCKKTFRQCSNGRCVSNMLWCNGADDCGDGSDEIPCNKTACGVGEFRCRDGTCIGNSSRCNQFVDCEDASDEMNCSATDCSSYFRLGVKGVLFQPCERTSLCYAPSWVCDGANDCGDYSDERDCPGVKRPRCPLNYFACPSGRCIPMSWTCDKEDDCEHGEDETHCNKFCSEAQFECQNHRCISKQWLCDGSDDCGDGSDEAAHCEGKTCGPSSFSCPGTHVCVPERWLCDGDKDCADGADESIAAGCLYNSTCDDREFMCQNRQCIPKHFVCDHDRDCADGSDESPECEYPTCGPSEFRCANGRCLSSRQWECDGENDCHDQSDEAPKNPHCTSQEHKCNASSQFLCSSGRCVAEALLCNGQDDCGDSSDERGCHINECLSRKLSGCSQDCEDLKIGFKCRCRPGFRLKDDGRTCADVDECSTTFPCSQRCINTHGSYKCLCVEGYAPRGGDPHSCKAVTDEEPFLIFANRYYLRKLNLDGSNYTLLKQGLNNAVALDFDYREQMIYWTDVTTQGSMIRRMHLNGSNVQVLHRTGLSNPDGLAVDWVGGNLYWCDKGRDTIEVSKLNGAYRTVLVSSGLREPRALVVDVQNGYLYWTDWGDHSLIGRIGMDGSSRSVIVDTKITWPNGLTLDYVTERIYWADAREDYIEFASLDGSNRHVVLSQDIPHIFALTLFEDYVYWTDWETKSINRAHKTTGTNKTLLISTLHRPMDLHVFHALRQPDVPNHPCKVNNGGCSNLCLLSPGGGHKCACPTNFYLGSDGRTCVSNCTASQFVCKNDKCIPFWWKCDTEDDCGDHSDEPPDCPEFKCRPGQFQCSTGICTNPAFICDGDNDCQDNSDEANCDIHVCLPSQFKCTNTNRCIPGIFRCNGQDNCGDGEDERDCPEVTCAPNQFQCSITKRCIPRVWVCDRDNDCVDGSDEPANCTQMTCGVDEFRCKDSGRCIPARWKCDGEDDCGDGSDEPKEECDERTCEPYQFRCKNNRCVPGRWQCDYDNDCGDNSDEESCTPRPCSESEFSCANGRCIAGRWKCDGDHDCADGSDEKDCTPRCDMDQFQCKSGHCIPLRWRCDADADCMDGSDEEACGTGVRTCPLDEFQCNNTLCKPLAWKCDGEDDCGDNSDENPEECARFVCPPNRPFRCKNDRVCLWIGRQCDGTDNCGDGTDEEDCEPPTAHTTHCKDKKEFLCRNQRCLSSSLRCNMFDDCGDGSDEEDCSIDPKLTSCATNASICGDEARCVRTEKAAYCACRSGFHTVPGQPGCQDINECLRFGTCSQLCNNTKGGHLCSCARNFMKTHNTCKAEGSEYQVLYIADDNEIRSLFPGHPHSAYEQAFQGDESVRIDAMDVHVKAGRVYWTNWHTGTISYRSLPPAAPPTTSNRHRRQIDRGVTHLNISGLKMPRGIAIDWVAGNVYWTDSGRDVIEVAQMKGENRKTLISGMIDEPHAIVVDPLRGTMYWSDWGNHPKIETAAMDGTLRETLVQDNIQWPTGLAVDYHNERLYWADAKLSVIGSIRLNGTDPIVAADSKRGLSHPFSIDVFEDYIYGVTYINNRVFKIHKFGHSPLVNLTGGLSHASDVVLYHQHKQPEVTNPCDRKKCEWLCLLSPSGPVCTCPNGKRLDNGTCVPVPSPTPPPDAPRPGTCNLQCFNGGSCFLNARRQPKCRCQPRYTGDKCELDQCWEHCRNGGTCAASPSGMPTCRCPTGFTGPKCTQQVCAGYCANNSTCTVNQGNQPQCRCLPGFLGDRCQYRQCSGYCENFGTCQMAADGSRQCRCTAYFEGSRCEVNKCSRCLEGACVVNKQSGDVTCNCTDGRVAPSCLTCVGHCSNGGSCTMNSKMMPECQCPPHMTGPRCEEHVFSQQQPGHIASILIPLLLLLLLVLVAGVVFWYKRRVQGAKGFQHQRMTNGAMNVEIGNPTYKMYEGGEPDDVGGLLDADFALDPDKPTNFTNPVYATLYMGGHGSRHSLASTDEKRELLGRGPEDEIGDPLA

Substance: Aβ42-HyLite488: fluorescently labeled Aβ42
- internalization by APOE3 pericyte-like cells [1]: internalized fluorescently labeled Aβ42-HyLite488

Substance: RAP: LRP1 inhibitor; competes with APOE for LRP1 binding
- effect of LRP1 inhibition on Aβ42-Hylite488 internalization (LRP1 [2]): internalization was diminished
- effect of LRP1 inhibition on basolateral-to-apical Aβ40 transcytosis (LRP1 [3]): reduced but did not completely inhibit Aβ transcytosis

Substance: rhAPOE2: recombinant human APOE2 (Peprotech, 350 − 12)
- effect of recombinant APOE isoform on Aβ42 trafficking [4, 5]: significantly increased the trafficking of Aβ42

Substance: rhAPOE3: recombinant human APOE3 (Peprotech, 350-02)
- effect on basolateral-to-apical Aβ40 transcytosis ([4]; APOE3 iPSC-derived BMEC-like cells on Transwell, Aβ40 dosed basolateral with or without rhAPOE3, apical Aβ40 by ELISA, n = 8 wells (Fig. 2D)): facilitated Aβ40 transcytosis
- effect of recombinant APOE isoform on Aβ40 trafficking ([4]; APOE KO BMEC-like cells on Transwell, 500 nM rhAPOE plus 500 nM Aβ40 basolateral, apical ELISA, vs no APOE control, n = 12 (Fig. 3D)): significantly increased the trafficking of Aβ40

Substance: rhAPOE4: recombinant human APOE4 (Peprotech, 350-04)
- effect of recombinant APOE isoform on Aβ42 trafficking [4, 5]: does not provide any increase in Aβ40 or Aβ42 clearance
